Test results as given in ChEMBL document CHEMBL5725665, “Pyrazolopyridines and pyrazolopyrimidines” (2018).
pIC50: −log10 of the molar value.

Assays:
[1] = target: Tyrosine-protein kinase JAK1 (Homo sapiens, UniProt P23458); test: (§1) JAK Caliper Enzyme Assay at 1 mM ATP: Test article was solubilized in dimethyl sulfoxide (DMSO) to a stock concentration of 30 mM. An 11-point half log dilution series was created in DMSO with a top concentration of 600 μM. […] The compound plates were diluted 1 to 60 resulting in a top final assay compound concentration of 10 μM and a 2% DMSO concentration.Test article and assay controls were added to a 384-well plate. Reaction mixtures contained 20 mM HEPES, pH 7.4, 10 mM magnesium chloride, 0.01% bovine serum albumin (BSA), 0.0005% Tween 20, 1 mM ATP and 1 μM peptide substrate. The JAK1 and TYK2 assays contained 1 μM of the IRStide peptide (5FAM-[…]) and the JAK2 and JAK3 assays contained 1 μM of the JAKtide peptide (FITC-[…]). […] Enzyme concentrations and incubation times were optimized for each new enzyme preps and were modified slightly over time to ensure 20%-30% phosphorylation. The assays were stopped with a final concentration of 10 mM EDTA, 0.1% Coating Reagent and 100 mM HEPES, pH=7.4. The assay plates were placed on a Caliper Life Science Lab Chip 3000 (LC3000) instrument, and each well was sampled using appropriate separation conditions to measure the unphosphorylated and phosphorylated peptide.
[2] = target: T1, Tyrosine-protein kinase JAK3 (Homo sapiens, UniProt P52333); test: as §1
T1 sequence (P52333 whole entry): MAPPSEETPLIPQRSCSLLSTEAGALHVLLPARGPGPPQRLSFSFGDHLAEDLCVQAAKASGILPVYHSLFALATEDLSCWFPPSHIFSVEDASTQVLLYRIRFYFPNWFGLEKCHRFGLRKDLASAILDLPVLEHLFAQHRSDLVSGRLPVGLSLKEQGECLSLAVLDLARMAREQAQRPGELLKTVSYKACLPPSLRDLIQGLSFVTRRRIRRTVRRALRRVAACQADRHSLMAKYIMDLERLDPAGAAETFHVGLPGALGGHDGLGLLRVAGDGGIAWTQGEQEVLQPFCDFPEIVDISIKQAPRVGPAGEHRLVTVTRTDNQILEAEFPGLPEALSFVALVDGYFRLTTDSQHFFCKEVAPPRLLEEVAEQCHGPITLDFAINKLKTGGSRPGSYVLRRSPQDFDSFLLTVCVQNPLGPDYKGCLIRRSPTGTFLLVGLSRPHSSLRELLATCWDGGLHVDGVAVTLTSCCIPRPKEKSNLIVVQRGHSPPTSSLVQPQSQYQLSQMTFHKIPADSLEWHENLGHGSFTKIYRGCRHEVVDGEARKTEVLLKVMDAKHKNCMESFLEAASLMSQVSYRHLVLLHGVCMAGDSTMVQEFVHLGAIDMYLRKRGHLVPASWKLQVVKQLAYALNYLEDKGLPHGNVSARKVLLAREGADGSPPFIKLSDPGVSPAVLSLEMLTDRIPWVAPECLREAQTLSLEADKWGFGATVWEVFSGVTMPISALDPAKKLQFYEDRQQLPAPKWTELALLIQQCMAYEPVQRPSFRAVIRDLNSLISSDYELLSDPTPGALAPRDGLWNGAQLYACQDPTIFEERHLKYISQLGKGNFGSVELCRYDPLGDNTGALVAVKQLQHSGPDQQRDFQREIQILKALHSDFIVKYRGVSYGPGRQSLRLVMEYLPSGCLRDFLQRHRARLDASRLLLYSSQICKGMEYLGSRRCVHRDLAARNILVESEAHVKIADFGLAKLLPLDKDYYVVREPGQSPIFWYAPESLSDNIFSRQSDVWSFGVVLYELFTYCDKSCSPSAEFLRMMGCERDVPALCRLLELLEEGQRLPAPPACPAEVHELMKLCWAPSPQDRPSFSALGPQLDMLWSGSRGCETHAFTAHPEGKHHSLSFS

[3] = target: Non-receptor tyrosine-protein kinase TYK2 (Homo sapiens, UniProt P29597); test: as §1
[4] = target: Tyrosine-protein kinase JAK2 (Homo sapiens, UniProt O60674); test: JAK Caliper Enzyme Assay at 1 mM ATP: Test article was solubilized in dimethyl sulfoxide (DMSO) to a stock concentration of 30 mM. An 11-point half log dilution series was created in DMSO with a top concentration of 600 μM. […] The compound plates were diluted 1 to 60 resulting in a top final assay compound concentration of 10 μM and a 2% DMSO concentration.Test article and assay controls were added to a 384-well plate. Reaction mixtures contained 20 mM HEPES, pH 7.4, 10 mM magnesium chloride, 0.01% bovine serum albumin (BSA), 0.0005% Tween 20, 1 mM ATP and 1 μM peptide substrate. […] Enzyme concentrations and incubation times were optimized for each new enzyme preps and were modified slightly over time to ensure 20%-30% phosphorylation. The assays were stopped with a final concentration of 10 mM EDTA, 0.1% Coating Reagent and 100 mM HEPES, pH=7.4. The assay plates were placed on a Caliper Life Science Lab Chip 3000 (LC3000) instrument, and each well was sampled using appropriate separation conditions to measure the unphosphorylated and phosphorylated peptide.
Sequence of Tyrosine-protein kinase JAK2 (O60674 whole entry): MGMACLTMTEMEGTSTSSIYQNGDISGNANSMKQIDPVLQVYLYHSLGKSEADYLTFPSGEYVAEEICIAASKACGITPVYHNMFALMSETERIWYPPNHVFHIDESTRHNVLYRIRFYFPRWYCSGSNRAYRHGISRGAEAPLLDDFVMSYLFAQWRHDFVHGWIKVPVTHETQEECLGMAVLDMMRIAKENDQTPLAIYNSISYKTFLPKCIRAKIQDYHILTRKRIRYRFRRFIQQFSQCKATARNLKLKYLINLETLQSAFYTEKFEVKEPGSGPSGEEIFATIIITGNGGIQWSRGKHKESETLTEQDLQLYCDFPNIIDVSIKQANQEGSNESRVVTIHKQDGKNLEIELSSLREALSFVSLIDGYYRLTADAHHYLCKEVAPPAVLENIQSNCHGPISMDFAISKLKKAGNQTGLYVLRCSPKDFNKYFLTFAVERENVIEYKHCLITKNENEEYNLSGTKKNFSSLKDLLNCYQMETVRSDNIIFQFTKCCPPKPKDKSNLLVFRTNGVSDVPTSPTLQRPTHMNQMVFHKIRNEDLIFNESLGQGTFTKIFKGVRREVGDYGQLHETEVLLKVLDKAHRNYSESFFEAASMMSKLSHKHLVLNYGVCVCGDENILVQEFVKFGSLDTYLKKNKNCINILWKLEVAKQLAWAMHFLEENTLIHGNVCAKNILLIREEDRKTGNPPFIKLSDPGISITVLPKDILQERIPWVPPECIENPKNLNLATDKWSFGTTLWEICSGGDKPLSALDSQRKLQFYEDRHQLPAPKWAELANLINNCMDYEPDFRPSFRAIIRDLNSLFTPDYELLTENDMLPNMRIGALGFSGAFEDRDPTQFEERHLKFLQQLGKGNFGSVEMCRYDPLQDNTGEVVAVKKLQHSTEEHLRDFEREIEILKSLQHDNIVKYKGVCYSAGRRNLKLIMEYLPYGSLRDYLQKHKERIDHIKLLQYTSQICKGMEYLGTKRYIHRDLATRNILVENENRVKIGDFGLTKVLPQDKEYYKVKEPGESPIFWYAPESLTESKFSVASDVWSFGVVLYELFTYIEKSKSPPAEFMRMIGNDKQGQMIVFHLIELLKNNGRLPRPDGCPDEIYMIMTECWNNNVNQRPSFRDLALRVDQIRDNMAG

Sequence of Tyrosine-protein kinase JAK1 (P23458 whole entry): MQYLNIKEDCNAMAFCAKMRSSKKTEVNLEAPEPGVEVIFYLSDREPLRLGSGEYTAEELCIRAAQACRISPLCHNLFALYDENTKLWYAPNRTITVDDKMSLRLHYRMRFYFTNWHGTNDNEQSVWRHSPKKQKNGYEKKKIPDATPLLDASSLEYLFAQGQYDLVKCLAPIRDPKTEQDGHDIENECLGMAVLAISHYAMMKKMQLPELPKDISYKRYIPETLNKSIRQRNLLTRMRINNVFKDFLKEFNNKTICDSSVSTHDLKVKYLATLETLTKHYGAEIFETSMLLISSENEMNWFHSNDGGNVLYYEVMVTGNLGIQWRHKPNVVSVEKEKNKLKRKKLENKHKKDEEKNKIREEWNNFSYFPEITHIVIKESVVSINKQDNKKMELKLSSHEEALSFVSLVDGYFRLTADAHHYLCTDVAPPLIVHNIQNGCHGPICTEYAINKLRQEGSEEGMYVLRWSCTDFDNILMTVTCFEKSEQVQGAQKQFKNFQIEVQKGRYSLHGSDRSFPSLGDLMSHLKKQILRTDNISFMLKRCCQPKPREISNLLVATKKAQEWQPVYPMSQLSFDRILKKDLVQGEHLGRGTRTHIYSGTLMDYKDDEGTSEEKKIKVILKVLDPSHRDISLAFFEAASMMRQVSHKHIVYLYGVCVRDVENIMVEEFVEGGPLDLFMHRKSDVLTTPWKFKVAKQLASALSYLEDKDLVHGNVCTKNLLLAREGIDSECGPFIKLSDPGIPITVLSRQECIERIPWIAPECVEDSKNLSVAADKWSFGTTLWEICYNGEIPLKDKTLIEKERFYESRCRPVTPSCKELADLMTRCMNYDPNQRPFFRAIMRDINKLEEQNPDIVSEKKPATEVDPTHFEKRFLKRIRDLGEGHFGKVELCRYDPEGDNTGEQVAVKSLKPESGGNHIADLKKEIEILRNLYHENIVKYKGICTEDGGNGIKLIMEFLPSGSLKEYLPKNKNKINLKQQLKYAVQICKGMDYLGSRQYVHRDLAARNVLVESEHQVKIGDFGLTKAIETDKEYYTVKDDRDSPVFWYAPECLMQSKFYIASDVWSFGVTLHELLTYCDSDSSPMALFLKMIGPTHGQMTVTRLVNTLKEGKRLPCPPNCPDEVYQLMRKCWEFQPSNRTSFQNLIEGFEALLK
Sequence of Non-receptor tyrosine-protein kinase TYK2 (P29597 whole entry): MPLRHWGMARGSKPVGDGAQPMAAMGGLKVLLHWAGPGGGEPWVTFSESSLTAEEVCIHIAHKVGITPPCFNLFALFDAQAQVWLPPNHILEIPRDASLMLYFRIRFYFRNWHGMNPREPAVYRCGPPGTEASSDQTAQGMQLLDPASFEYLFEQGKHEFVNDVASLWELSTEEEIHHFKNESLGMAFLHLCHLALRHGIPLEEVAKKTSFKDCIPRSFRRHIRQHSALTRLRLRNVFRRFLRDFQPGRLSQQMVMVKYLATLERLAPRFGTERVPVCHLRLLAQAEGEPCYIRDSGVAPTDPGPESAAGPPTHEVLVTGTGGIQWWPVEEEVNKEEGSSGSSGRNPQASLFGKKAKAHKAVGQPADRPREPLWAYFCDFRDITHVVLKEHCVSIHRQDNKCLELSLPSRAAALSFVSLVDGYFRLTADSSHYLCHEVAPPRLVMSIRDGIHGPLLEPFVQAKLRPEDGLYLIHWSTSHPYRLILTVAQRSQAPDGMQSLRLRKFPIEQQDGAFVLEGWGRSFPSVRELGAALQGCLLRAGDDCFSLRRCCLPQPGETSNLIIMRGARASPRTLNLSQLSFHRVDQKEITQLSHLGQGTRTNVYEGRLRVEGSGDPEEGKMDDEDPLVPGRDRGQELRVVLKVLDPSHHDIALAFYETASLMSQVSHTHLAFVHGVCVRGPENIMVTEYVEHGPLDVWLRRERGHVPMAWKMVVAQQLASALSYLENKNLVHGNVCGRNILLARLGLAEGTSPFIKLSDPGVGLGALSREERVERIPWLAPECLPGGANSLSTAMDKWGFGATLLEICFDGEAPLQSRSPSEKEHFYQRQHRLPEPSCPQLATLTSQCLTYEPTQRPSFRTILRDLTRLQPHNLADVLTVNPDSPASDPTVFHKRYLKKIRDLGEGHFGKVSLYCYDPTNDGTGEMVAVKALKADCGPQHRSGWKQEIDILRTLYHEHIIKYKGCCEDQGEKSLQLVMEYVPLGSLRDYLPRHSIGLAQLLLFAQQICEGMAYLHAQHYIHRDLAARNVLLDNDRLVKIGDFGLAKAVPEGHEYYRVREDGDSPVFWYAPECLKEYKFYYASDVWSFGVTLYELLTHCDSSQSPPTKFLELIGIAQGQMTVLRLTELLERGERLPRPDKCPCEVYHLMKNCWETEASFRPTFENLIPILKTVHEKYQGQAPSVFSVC

Compound | pIC50 [1] | pIC50 [2] | pIC50 [3] | pIC50 [4]
Cc1nnc(-c2n[nH]c3cc(-c4cc(F)c(O)cc4CC(F)(F)F)nc(NCc4ccccc4N(C)S(C)(=O)=O)c23)[nH]1 | 7.56 | 6.37 | 6.82 | 6.89
CCc1cc(O)ccc1-c1cc2[nH]ncc2c(N2CC(Oc3ccccc3)C2)n1 | 7.92 | 7.17 | 5.29 | 7.08
CN(c1ccc(O)cc1CNc1nc(-c2cc(F)c(O)cc2CC(F)(F)F)nc2[nH]nc(C(N)=O)c12)S(C)(=O)=O | 8.49 | 7.42 | 6.43 | 7.90
CN(c1ccc(O)cc1CNc1nc(-c2cc(F)c(O)cc2CC(F)(F)F)nc2[nH]nc(-c3nc4c([nH]3)CCNC4)c12)S(C)(=O)=O | 8.25 | 6.95 | 7.16 | 7.45
CS(=O)(=O)N(CCO)c1ccccc1CNc1nc(-c2cc(F)c(O)cc2CC(F)(F)F)cc2[nH]nc(C(N)=O)c12 | 8.54 | 7.27 | 7.31 | 7.83
CN(c1ccccc1CNc1nc(-c2cc(F)c(O)cc2CC(F)(F)F)nc2[nH]nc(-c3nnc(C4CCN(C(=O)CN5CCCC5)CC4)[nH]3)c12)S(C)(=O)=O | 7.77 | 6.80 | 5.65 | 7.27
CCc1cc(O)ccc1-c1cc2[nH]ncc2c(NCCc2ccc(-c3ccccc3)cc2)n1 | 7.06 | 6.80 | 5.37 | 6.74
